Measured values from US8658573B2, “Photo-generated carbohydrate arrays and the rapid identification of pathogen-specific antigens and antibodies” (priority 2006, dated 2014).

test system: rabbit anti-B. anthracis spore polyclonal IgG antibodies; format: binding

`COC(=O)CCCCCO[C@@H]1O[C@@H](C)[C@H](O)[C@@H](O)[C@H]1O[C@@H]1O[C@@H](C)[C@H](O)[C@@H](O[C@@H]2O[C@H](C)[C@@H](NC(=O)CC(C)(C)O)[C@H](O)[C@H]2OC)[C@H]1O` [Id# 3, 5-(Methoxycarbonyl)-pentyl 4-(3-hydroxy-3-methylbutanamido)-2-O-methyl-4,6-dideoxy-β-D-glucopyranosyl-(1→3)-α-L-rhamnopyranosyl-(1→2)-α-L-rhamnopyranoside] was tested, and the “recognition of surface-bound carbohydrate by the antibody (FIG. 2A/2B)” value was “recognized by the antibody”.
In the case of `COC(=O)CCCCCO[C@H]1O[C@@H](C)[C@H](O)[C@@H](O)[C@H]1O[C@@H]1O[C@@H](C)[C@H](O)[C@@H](O[C@@H]2O[C@@H](C)[C@H](O)[C@@H](O[C@@H]3O[C@H](C)[C@@H](NC(=O)CC(C)(C)O)[C@H](O)[C@H]3OC)[C@H]2O)[C@H]1O` [Id# 4, 5-(Methoxycarbonyl)-pentyl 4-(3-hydroxy-3-methylbutanamido)-2-O-methyl-4,6-dideoxy-β-D-glucopyranosyl-(1→3)-α-L-rhamnopyranoyl-(1→3)-α-L-rhamnopyranosyl-(1→2)-β-L-rhamnopyranoside], the “recognition of surface-bound carbohydrate by the antibody (FIG. 2A/2B)” value is reported as “recognized by the antibody”.
With `COC(=O)CCCCCO[C@@H]1O[C@@H](C)[C@H](O)[C@@H](O)[C@H]1O[C@@H]1O[C@@H](C)[C@H](O)[C@@H](O[C@@H]2O[C@@H](C)[C@H](O)[C@@H](O[C@@H]3O[C@H](C)[C@@H](NC(=O)CC(C)(C)O)[C@H](O)[C@H]3OC)[C@H]2O)[C@H]1O` [Id# 5, 5-(Methoxycarbonyl)-pentyl 4-(3-hydroxy-3-methylbutanamido)-2-O-methyl-4,6-dideoxy-β-D-glucopyranosyl-(1→3)-α-L-rhamnopyranoyl-(1→3)-α-L-rhamnopyranosyl-(1→2)-α-L-rhamnopyranoside] the “recognition of surface-bound carbohydrate by the antibody (FIG. 2A/2B)” value was “recognized by the antibody”.

Compared with `COC(=O)CCCCCO[C@@H]1O[C@H](C)[C@@H](NC(=O)CC(C)(C)O)[C@H](O)[C@H]1OC` [compound 1], `COC(=O)CCCCCO[C@@H]1O[C@@H](C)[C@H](O)[C@@H](O[C@@H]2O[C@H](C)[C@@H](NC(=O)CC(C)(C)O)[C@H](O)[C@H]2OC)[C@H]1O` [compound 2] is higher in “IgG signal detected by carbohydrate arrays (n = 3), Mean” value (from here on “IgG signal detected”): 1.44 for the first, 1.65 for the second.

Going from `COC(=O)CCCCCO[C@@H]1O[C@@H](C)[C@H](O)[C@@H](O)[C@H]1O[C@@H]1O[C@@H](C)[C@H](O)[C@@H](O[C@@H]2O[C@H](C)[C@@H](NC(=O)CC(C)(C)O)[C@H](O)[C@H]2OC)[C@H]1O` [compound 3] to `COC(=O)CCCCCO[C@H]1O[C@@H](C)[C@H](O)[C@@H](O)[C@H]1O[C@@H]1O[C@@H](C)[C@H](O)[C@@H](O[C@@H]2O[C@@H](C)[C@H](O)[C@@H](O[C@@H]3O[C@H](C)[C@@H](NC(=O)CC(C)(C)O)[C@H](O)[C@H]3OC)[C@H]2O)[C@H]1O` [compound 4], the “IgG signal detected” value rises from 2.73 to 5.16.

Compared with `COC(=O)CCCCCO[C@@H]1O[C@@H](C)[C@H](O)[C@@H](O)[C@H]1O[C@@H]1O[C@@H](C)[C@H](O)[C@@H](O[C@@H]2O[C@@H](C)[C@H](O)[C@@H](O[C@@H]3O[C@H](C)[C@@H](NC(=O)CC(C)(C)O)[C@H](O)[C@H]3OC)[C@H]2O)[C@H]1O` [compound 5], `COC(=O)CCCCCO[C@@H]1O[C@@H](C)[C@H](O)[C@@H](O)[C@H]1O[C@@H]1O[C@@H](C)[C@H](O)[C@@H](O[C@@H]2O[C@@H](C)[C@H](O)[C@@H](O)[C@H]2O)[C@H]1O` [compound 17] is lower in “IgG signal detected” value: 5.19 for the first, 0.98 for the second.

Going from `CC(=O)N[C@@H](C=O)[C@@H](O)[C@@H](O)[C@H](O)CO` [compound 11] to `COC(=O)CCCCCO[C@@H]1O[C@@H](C)[C@H](O)[C@@H](O)[C@H]1O` [compound 14], the “IgG signal detected” value falls from 1.03 to 0.97.

First: COC(=O)CCCCCO[C@H]1O[C@@H](C)[C@H](O)[C@@H](O)[C@H]1O [compound 15]
Second: COC(=O)CCCCCO[C@@H]1O[C@@H](C)[C@H](O)[C@@H](O[C@@H]2O[C@@H](C)[C@H](O)[C@@H](O)[C@H]2O)[C@H]1O [compound 16]
The “IgG signal detected” value of the first is lower: 0.95 for the first, 1.00 for the second.

Compared with `COC(=O)CCCCCO[C@@H]1O[C@@H](C)[C@H](O)[C@@H](O)[C@H]1O[C@@H]1O[C@@H](C)[C@H](O)[C@@H](O)[C@H]1O` [compound 18], `COC(=O)CCCCCO[C@H]1O[C@@H](C)[C@H](O)[C@@H](O)[C@H]1O[C@@H]1O[C@@H](C)[C@H](O)[C@@H](O)[C@H]1O` [compound 19] is lower in “IgG signal detected” value: 1.26 for the first, 0.98 for the second.

First: COC(=O)CCCCCO[C@H]1O[C@@H](C)[C@H](O)[C@@H](O)[C@H]1O[C@@H]1O[C@@H](C)[C@H](O)[C@@H](O[C@@H]2O[C@@H](C)[C@H](O)[C@@H](O)[C@H]2O)[C@H]1O [compound 20]
Second: CO[C@H]1O[C@H](CO)[C@@H](O)[C@H](O[C@H]2O[C@H](CO)[C@H](O)[C@H](O)[C@H]2O[C@@H]2O[C@@H](C)[C@H](O)[C@@H](O)[C@H]2O)[C@H]1NC(C)=O [compound 23]
The “IgG signal detected” value of the first is lower: 0.95 for the first, 1.01 for the second.

Compared with `COC1O[C@H](CO)[C@H](O)[C@H](O)[C@H]1O[C@@H]1O[C@@H](C)[C@H](O)[C@@H](O)[C@H]1O` (some centres unmarked) [compound 21], `CO[C@@H]1O[C@@H](C)[C@H](O)[C@@H](O[C@@H]2O[C@@H](C)[C@H](O)[C@@H](O)[C@H]2O)[C@H]1O` [compound 24] is lower in “IgG signal detected” value: 1.08 for the first, 1.02 for the second.

In the case of `CO[C@H]1O[C@H](CO)[C@H](O)[C@H](O)[C@H]1O[C@@H]1O[C@@H](C)[C@H](O)[C@@H](O[C@@H]2O[C@@H](C)[C@H](O)[C@@H](O[C@H]3O[C@H](CO)[C@@H](O)[C@H](O)[C@H]3NC(C)=O)[C@H]2O)[C@H]1O` [compound 22], the “IgG signal detected” value is reported as 0.95.
